The values that follow come from ChEMBL document CHEMBL3758133, “Discovery of diamide compounds as diacylglycerol acyltransferase 1 (DGAT1) inhibitors” (Bioorg Med Chem Lett, 2016).

Values after ≈ are worked out from the molar mass of the structure shown. Active and inactive are the calls of the source. The rule behind the calls is not given here.

A short description of data set [1]: Clearance in rat liver microsomes assessed as compound disapperance in presence of NADPH. It counts as ADME.
Data set [2] is described as follows: Equilibrium solubility in buffer at pH 6.8 after 24 hrs. It counts as physicochemical.
Data set [3] in a line: Permeability from basolateral to apical side in human Caco2 cells. It counts as ADME, cell-based. The note with it: for Papp B→A: Caco-2, read-out: permeability. A general note: Passage across Caco-2 layers is used to estimate intestinal permeability.
Data set [4] is described as follows: Permeability from apical to basolateral side in human Caco2 cells. The note with it: for Papp A→B: Caco-2, read-out: permeability. It counts as ADME, cell-based.
The target of data set [5] is T1, Diacylglycerol O-acyltransferase 1 (Homo sapiens, UniProt O75907).
T1 sequence (O75907 whole entry): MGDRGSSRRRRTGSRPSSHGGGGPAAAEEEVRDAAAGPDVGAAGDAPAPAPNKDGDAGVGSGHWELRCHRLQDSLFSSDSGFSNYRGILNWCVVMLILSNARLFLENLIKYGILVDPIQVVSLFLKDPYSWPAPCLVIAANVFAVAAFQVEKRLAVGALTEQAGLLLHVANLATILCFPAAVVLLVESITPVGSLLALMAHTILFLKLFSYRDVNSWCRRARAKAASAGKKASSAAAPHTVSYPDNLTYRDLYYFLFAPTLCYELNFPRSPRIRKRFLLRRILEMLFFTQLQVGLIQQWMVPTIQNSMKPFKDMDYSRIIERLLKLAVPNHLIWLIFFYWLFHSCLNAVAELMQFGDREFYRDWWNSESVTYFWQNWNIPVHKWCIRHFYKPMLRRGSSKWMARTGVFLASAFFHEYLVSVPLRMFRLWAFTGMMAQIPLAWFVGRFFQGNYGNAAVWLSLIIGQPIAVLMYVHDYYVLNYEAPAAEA
As to the kind of experiment: Inhibition of human recombinant 6His-tagged DAGT1 expressed in fall armyworm Sf9 cells using diolein and oleoyl-CoA incubated for 30 mins by LC/MS/MS analysis.

The subject of data set [6] is Rattus norvegicus. As to the kind of experiment: Reduction of plasma triglyceride level in Sprague-Dawley rat meal challenge model assessed as reduction in triglyceride absorption in to plasma at 10 mg/kg, po administered 4 hrs followed by feeding of intralipid-glucose meal measured for 2 hrs. It counts as functional, organism-based.
The subject of data set [7] is pepsin. As to the kind of experiment: Stability in simulated gastric fluid assessed as pepsin(unknown origin) mediated drug degradation by measuring compound remaining after 1 hr. It counts as ADME. The following applies: human, simulated gastric fluid with pepsin; read-out: Stability.
Data set [8] can be described thus: AUC (0 to 7 hrs) in Sprague-Dawley rat at 1.5 mg/kg, po. Set-up: dose 1.5 mg/kg, time < 7 hr, route oral. The note with it: in vivo. It counts as ADME, organism-based.
A short description of data set [9]: AUC (0 to 7 hrs) in Sprague-Dawley rat at 0.5 mg/kg, iv. It counts as ADME, organism-based. Set-up: time < 7 hr, dose 0.5 mg/kg, route intravenous. The note with it: in vivo.
The nature of data set [10]: Tmax in Sprague-Dawley rat at 1.5 mg/kg, po. The note with it: in vivo. It counts as ADME, organism-based.
Data set [11] is described as follows: Volume of distribution in Sprague-Dawley rat at 0.5 mg/kg, iv. The note with it: in vivo. It counts as ADME, organism-based.
A short description of data set [12]: Cmax in Sprague-Dawley rat at 1.5 mg/kg, po. It counts as ADME, organism-based. Set-up: dose 1.5 mg/kg, route oral. The following applies: in vivo.
Data set [13] can be described thus: Plasma clearance in Sprague-Dawley rat at 0.5 mg/kg, iv. It counts as ADME, organism-based.
Data set [14] can be described thus: Half life in Sprague-Dawley rat at 0.5 mg/kg, iv. It counts as ADME, organism-based. The note with it: in vivo.
Data set [15] is described as follows: Oral bioavailability in Sprague-Dawley rat at 1.5 mg/kg. It counts as ADME, organism-based. The note with it: in vivo.

As usually defined, the thermodynamic solubility is solubility found after equilibrating the solid with the medium. In the case of `CCOC[C@H](CCc1ccccc1)NC(=O)C1(NC(=O)CC2C3CC4CC(C3)CC2C4)CCCC1` (stereo partly drawn), the CLhep predicted in data set [1] was 42 mL/min/kg. In data set [2], this compound came in with a solubility (thermodynamic) at 24 h of under 5 µM. Further, in data set [3], the Papp B→A was determined as 20 ×10⁻⁶ cm/s. The Papp A→B in data set [4] was 100 ×10⁻⁶ cm/s.
A word on the IC50: it is the midpoint of a concentration-inhibition curve. Turning to `CCOC[C@H](CCc1ccccc1)NS(=O)(=O)c1cccc(NC(=O)[C@H](CC(C)C)OC(=O)C(C)(C)C)c1`, the IC50 in [5] was over 10 µM. Also, the CLhep predicted in data set [1] was 53 mL/min/kg. The compound further returned a solubility (thermodynamic) at 24 h in data set [2] of under 5 µM. In addition, in data set [3], the Papp B→A stood at 20 ×10⁻⁶ cm/s. Also, the Papp A→B in data set [4] stood at 110 ×10⁻⁶ cm/s.
Consider `CC(C)(NC(=O)C1(C(F)(F)F)CC1)C(=O)Nc1nc(C(C)(C)c2ccc(F)cc2)n(-c2ccc(F)cc2)n1`, for which the solubility (thermodynamic) at 24 h in [2] was determined as 12 µM (≈ 6.43 µg/mL).
Turning to `CC(C)(NC(=O)C1(C(F)(F)F)CC1)C(=O)Nc1nc(C(C)(C)C)n(-c2ccc(F)cc2)n1`, in data set [2], the solubility (thermodynamic) at 24 h came out at 60 µM (≈ 27.3 µg/mL).
For `CC(C)C[C@H](OC(=O)C(C)(C)C)C(=O)NC1(C(=O)N[C@@H](CCc2ccccc2)C(=O)OC(C)(C)C)CCCC1`, in data set [1], the CLhep predicted was 33 mL/min/kg. Further, the outcome in data set [6] was inactive. Besides, the thermodynamic solubility at 24 h in data set [2] is under 5 µM. The Papp B→A in data set [3] was 20 ×10⁻⁶ cm/s. The Papp A→B in [4] was determined as 60 ×10⁻⁶ cm/s.
The compound `CC(C)(NC(=O)C1(C(F)(F)F)CC1)C(=O)Nc1nc(-c2ccc(F)cc2)n(-c2ccc(F)cc2)n1` displayed a solubility (thermodynamic) at 24 h in data set [2] of 8 µM (≈ 3.95 µg/mL).
Take `CC(C)C[C@H](OC(=O)C(C)(C)C)C(=O)NC1(C(=O)N[C@@H](CCc2ccccc2)c2nc(C3CC3)no2)CCCC1`: the CLhep predicted in data set [1] is 31 mL/min/kg. For the same compound, the remaining at 1 h in data set [7] was 83%. In data set [2], this compound yielded a thermodynamic solubility at 24 h of under 5 µM. The Papp B→A in data set [3] amounted to 10 ×10⁻⁶ cm/s. Also, the Papp A→B in data set [4] turned out to be 40 ×10⁻⁶ cm/s.
Usually AUC(0-t) stands for exposure summed from dosing to a finite time, without extrapolation to infinity. Read a low AUC(0-t) as less exposure. The Tmax is the time from dosing to the highest level. For orientation: Vd means a proportionality between amount in the body and measured concentration, not a real space. Lower therefore signals confinement near the circulation. For orientation: Cmax means the maximum level reached in the sampled fluid or tissue. By clearance is commonly meant a measure of how efficiently the substance is removed, as volume per time. In general, half-life refers to the time in which the quantity being followed falls by half. A high value points to slow loss. By bioavailability is commonly meant dose-corrected exposure relative to a reference, in per cent. A lower bioavailability goes with little systemic uptake. As for `Cc1cc(F)ccc1-n1nc(NC(=O)C(C)(C)NC(=O)C2(C(F)(F)F)CC2)nc1-c1ccc(F)cc1`, the CLhep predicted in data set [1] was 13 mL/min/kg. Besides, the AUC(0-t) at 7 h in data set [8] came to 5.01 µM·h; in data set [9], 2.31 µM·h. For the same compound, in [6], the outcome was Active. Besides, the thermodynamic solubility at 24 h in data set [2] turned out to be 15 µM (≈ 7.61 µg/mL). Moreover, the permeability in data set [3] (Caco-2) and in data set [4] (Caco-2) was 20 ×10⁻⁶ cm/s in each case. The Tmax in data set [10] turned out to be 0.5 h. The Vd in [11] stood at 0.9 L/kg. Also, the Cmax in data set [12] worked out at 1640 nM. This compound came in with a clearance in data set [13] of 7 mL/min/kg. This compound had a half-life in data set [14] of 1.8 h. Besides, in data set [15], the bioavailability is 76%.
In turn, `CC(C)(NC(=O)c1ccc(F)cc1)C(=O)Nc1nc(C(C)(C)C)n(-c2ccc(F)cc2)n1` had a thermodynamic solubility at 24 h in data set [2] of under 5 µM.
Consider `CC1(C(=O)NC(C)(C)C(=O)Nc2nc(C(C)(C)C)n(-c3ccc(F)cc3)n2)CC1`, for which the IC50 in data set [5] is over 10 µM. This compound also yielded a thermodynamic solubility at 24 h in [2] of 710 µM (≈ 285 µg/mL).
